# System: Energy system protein genes
# Assay: DNA chip mRNA expression in yeast, energy system protein genes (Table 4)
# Type: cell-based, Saccharomyces cerevisiae S288C
# Method: Yeast (Saccharomyces cerevisiae S288C (α SUC2mal mel gap2 CUP1)) were incubated at 25° C. on YPD medium (yeast extract 1%, polypepton 2%, glucose 2%). One of toxic chemical substances was added to the cells at logarithmic growth phase, and the cells were further incubated for two hours. Cells were cultured without any chemical substance in the same condition, and were used as control. Concentrations of the chemical substances were defined to inhibit the growth of the yeast but not lead to death.
# After completion of the incubation, the culture was centrifuged to collect the cells. To the cells, sodium acetate buffer (50 mM sodium acetate, 10 mM EDTA, 1% SDS) was added, and the mixture was shaken at 65° C. for five minutes, followed by returning to room temperature, and obtaining the supernatant, of which the procedures were repeated two times. To the supernatant, ½ amount of a solution of phenol/chloroform was added, and the mixture was centrifuged to give a supernatant, which was added with an equal amount of chloroform, and the mixture was centrifuged to give a supernatant. To the supernatant, an equal amount of isopropanol containing 0.3 M sodium acetate was added, and the mixture was allowed to stand at room temperature for 30 minutes, after which the mixture was centrifuged to give a sediment of the whole RNAs. Seventy % ethanol was added to the sediment, and the mixture was again centrifuged to give a sediment, which was then dried and dissolved in water. mRNA was isolated from the whole RNAs as followings. In view of the fact that a poly A chain is attached to the 3′ terminus of mRNA, a polynucleotide having a poly T structure which was immobilized on the surface of latex beads was used to trap the mRNA, and then the mRNA was washed and eluted with spine column (Oligotex-dT30<Super>mRNA Purification Kit, Takara). Reverse transcription of the mRNA was conducted with a reverse transcriptase (Super Script II Reverse Transcriptase; catalogue No. 18064-014, GibcoBRL) using fluorescence-labeled nucleotides to give cDNAs that were introduced with Cy3-dUTP or Cy5-dUTP during the reverse transcription.
# The labeled cDNAs were dissolved in TE buffer (10mM Tris-HCl/1 mM EDTA, pH8.0), and the solution was dropped on the DNA chip containing the whole genes of yeast (DNA Chip Research Inc. Japan) so that the cDNAs were hybridized on the DNA chip at 65° C. for over 12 hours. The fluoresces intensity of the DNA chip was read with a scanner, and the ratio relative to the fluorescence intensity resulting from the absence of chemical substance was estimated as the following, which is shown in Tables 1 to 9: […]
substance,measurement,setting,value
Na2As [(1)],The level of expressed mRNA in the presence of chemical substance/The level of expressed mRNA in the absence of chemical substance,yeast gene YJR048W,1.3
same,The level of expressed mRNA in the presence of chemical substance/The level of expressed mRNA in the absence of chemical substance,"yeast gene YJR121W, cells incubated two hours with the chemical substance",1.2
same,The level of expressed mRNA in the presence of chemical substance/The level of expressed mRNA in the absence of chemical substance,yeast gene YJR155W,7.6
same,The level of expressed mRNA in the presence of chemical substance/The level of expressed mRNA in the absence of chemical substance,"yeast gene YKL016C, cells incubated two hours with the chemical substance",1.5
same,The level of expressed mRNA in the presence of chemical substance/The level of expressed mRNA in the absence of chemical substance,"yeast gene YKL060C, cells incubated two hours with the chemical substance",1.7
same,The level of expressed mRNA in the presence of chemical substance/The level of expressed mRNA in the absence of chemical substance,"yeast gene YKL141W, cells incubated two hours with the chemical substance",1.6
same,The level of expressed mRNA in the presence of chemical substance/The level of expressed mRNA in the absence of chemical substance,"yeast gene YKL148C, cells incubated two hours with the chemical substance",0.9
same,The level of expressed mRNA in the presence of chemical substance/The level of expressed mRNA in the absence of chemical substance,"yeast gene YKR009C, cells incubated two hours with the chemical substance",1.0
same,The level of expressed mRNA in the presence of chemical substance/The level of expressed mRNA in the absence of chemical substance,"yeast gene YKR058W, cells incubated two hours with the chemical substance, 25° C., YPD medium",1.3
same,The level of expressed mRNA in the presence of chemical substance/The level of expressed mRNA in the absence of chemical substance,yeast gene YKR097W,1.6
same,The level of expressed mRNA in the presence of chemical substance/The level of expressed mRNA in the absence of chemical substance,"yeast gene YLL041C, cells incubated two hours with the chemical substance",1.5
same,The level of expressed mRNA in the presence of chemical substance/The level of expressed mRNA in the absence of chemical substance,"yeast gene YLR038C, cells incubated two hours with the chemical substance",2.6
same,The level of expressed mRNA in the presence of chemical substance/The level of expressed mRNA in the absence of chemical substance,"yeast gene YLR044C, cells incubated two hours with the chemical substance",0.8
same,The level of expressed mRNA in the presence of chemical substance/The level of expressed mRNA in the absence of chemical substance,"yeast gene YLR134W, cells incubated two hours with the chemical substance",0.9
same,The level of expressed mRNA in the presence of chemical substance/The level of expressed mRNA in the absence of chemical substance,"yeast gene YLR258W, cells incubated two hours with the chemical substance",1.7
same,The level of expressed mRNA in the presence of chemical substance/The level of expressed mRNA in the absence of chemical substance,"yeast gene YLR284C, cells incubated two hours with the chemical substance",0.9
same,The level of expressed mRNA in the presence of chemical substance/The level of expressed mRNA in the absence of chemical substance,"yeast gene YLR295C, cells incubated two hours with the chemical substance, 25° C., YPD medium",1.5
same,The level of expressed mRNA in the presence of chemical substance/The level of expressed mRNA in the absence of chemical substance,"yeast gene YLR304C, cells incubated two hours with the chemical substance",0.7
same,The level of expressed mRNA in the presence of chemical substance/The level of expressed mRNA in the absence of chemical substance,yeast gene YLR345W,1.4
same,The level of expressed mRNA in the presence of chemical substance/The level of expressed mRNA in the absence of chemical substance,"yeast gene YLR354C, cells incubated two hours with the chemical substance",1.2
same,The level of expressed mRNA in the presence of chemical substance/The level of expressed mRNA in the absence of chemical substance,"yeast gene YLR377C, cells incubated two hours with the chemical substance",1.1
same,The level of expressed mRNA in the presence of chemical substance/The level of expressed mRNA in the absence of chemical substance,"yeast gene YLR395C, cells incubated two hours with the chemical substance",1.8
same,The level of expressed mRNA in the presence of chemical substance/The level of expressed mRNA in the absence of chemical substance,yeast gene YML087C,1.8
same,The level of expressed mRNA in the presence of chemical substance/The level of expressed mRNA in the absence of chemical substance,"yeast gene YML120C, cells incubated two hours with the chemical substance",1.1
same,The level of expressed mRNA in the presence of chemical substance/The level of expressed mRNA in the absence of chemical substance,"yeast gene YML129C, cells incubated two hours with the chemical substance",1.1
same,The level of expressed mRNA in the presence of chemical substance/The level of expressed mRNA in the absence of chemical substance,"yeast gene YMR073C, cells incubated two hours with the chemical substance",1.1
same,The level of expressed mRNA in the presence of chemical substance/The level of expressed mRNA in the absence of chemical substance,yeast gene YMR118C,1.3
same,The level of expressed mRNA in the presence of chemical substance/The level of expressed mRNA in the absence of chemical substance,"yeast gene YMR205C, cells incubated two hours with the chemical substance",0.5
same,The level of expressed mRNA in the presence of chemical substance/The level of expressed mRNA in the absence of chemical substance,"yeast gene YMR261C, cells incubated two hours with the chemical substance",0.8
same,The level of expressed mRNA in the presence of chemical substance/The level of expressed mRNA in the absence of chemical substance,"yeast gene YMR267W, cells incubated two hours with the chemical substance, 25° C., YPD medium",0.8
same,The level of expressed mRNA in the presence of chemical substance/The level of expressed mRNA in the absence of chemical substance,"yeast gene YMR323W, cells incubated two hours with the chemical substance",0.8
same,The level of expressed mRNA in the presence of chemical substance/The level of expressed mRNA in the absence of chemical substance,yeast gene YNL071W,0.9
same,The level of expressed mRNA in the presence of chemical substance/The level of expressed mRNA in the absence of chemical substance,"yeast gene YNL202W, cells incubated two hours with the chemical substance",0.7
same,The level of expressed mRNA in the presence of chemical substance/The level of expressed mRNA in the absence of chemical substance,yeast gene YNL241C,1.3
same,The level of expressed mRNA in the presence of chemical substance/The level of expressed mRNA in the absence of chemical substance,yeast gene YNL331C,8.6
same,The level of expressed mRNA in the presence of chemical substance/The level of expressed mRNA in the absence of chemical substance,"yeast gene YOL086C, cells incubated two hours with the chemical substance",1.1
same,The level of expressed mRNA in the presence of chemical substance/The level of expressed mRNA in the absence of chemical substance,yeast gene YOL165C,10.1
same,The level of expressed mRNA in the presence of chemical substance/The level of expressed mRNA in the absence of chemical substance,"yeast gene YOR142W, cells incubated two hours with the chemical substance",1.3
same,The level of expressed mRNA in the presence of chemical substance/The level of expressed mRNA in the absence of chemical substance,"yeast gene YOR178C, cells incubated two hours with the chemical substance",1.4
same,The level of expressed mRNA in the presence of chemical substance/The level of expressed mRNA in the absence of chemical substance,"yeast gene YOR388C, cells incubated two hours with the chemical substance",1.0
same,The level of expressed mRNA in the presence of chemical substance/The level of expressed mRNA in the absence of chemical substance,"yeast gene YPL031C, cells incubated two hours with the chemical substance",0.9
same,The level of expressed mRNA in the presence of chemical substance/The level of expressed mRNA in the absence of chemical substance,"yeast gene YPL061W, cells incubated two hours with the chemical substance",0.4
same,The level of expressed mRNA in the presence of chemical substance/The level of expressed mRNA in the absence of chemical substance,yeast gene YPL088W,3.3
same,The level of expressed mRNA in the presence of chemical substance/The level of expressed mRNA in the absence of chemical substance,yeast gene YPL171C,15.2
same,The level of expressed mRNA in the presence of chemical substance/The level of expressed mRNA in the absence of chemical substance,yeast gene YPL240C,0.7
same,The level of expressed mRNA in the presence of chemical substance/The level of expressed mRNA in the absence of chemical substance,"yeast gene YPL262W, cells incubated two hours with the chemical substance",1.1
same,The level of expressed mRNA in the presence of chemical substance/The level of expressed mRNA in the absence of chemical substance,"yeast gene YPL275W, cells incubated two hours with the chemical substance",0.6
same,The level of expressed mRNA in the presence of chemical substance/The level of expressed mRNA in the absence of chemical substance,"yeast gene YPL276W, cells incubated two hours with the chemical substance",1.2
same,The level of expressed mRNA in the presence of chemical substance/The level of expressed mRNA in the absence of chemical substance,"yeast gene YPR048W, cells incubated two hours with the chemical substance",1.3
same,The level of expressed mRNA in the presence of chemical substance/The level of expressed mRNA in the absence of chemical substance,"yeast gene YPR184W, cells incubated two hours with the chemical substance",1.2
